According to ChEMBL document CHEMBL5518180, “Design, synthesis, and biological evaluation of harmine derivatives as topoisomerase I inhibitors for cancer treatment” (Eur J Med Chem, 2024):

What was measured:
[1] = system: MCF7; test: Antiproliferative activity against human MCF7 cells assessed as inhibition of cell growth incubated for 48 hrs by MTT assay; format: functional, cell-based; settings: MCF7, 48 h
[2] = system: A549; test: Antiproliferative activity against human A549 cells assessed as inhibition of cell growth incubated for 48 hrs by MTT assay; format: functional, cell-based; settings: A549, 48 h
[3] = Cytotoxicity against human L02 cells assessed as inhibition of cell growth incubated for 48 hrs by MTT assay; format: toxicity, cell-based
[4] = system: HepG2; test: Antiproliferative activity against human HepG2 cells assessed as inhibition of cell growth incubated for 48 hrs by MTT assay; format: functional, cell-based; settings: HepG2, 48 h
[5] = system: PC-3; test: Antiproliferative activity against human PC-3 cells assessed as inhibition of cell growth incubated for 48 hrs by MTT assay; format: functional, cell-based; settings: PC-3, 48 h
[6] = system: HT-29; test: Antiproliferative activity against human HT-29 cells assessed as inhibition of cell growth incubated for 48 hrs by MTT assay; format: functional, cell-based; settings: HT-29, 48 h
[7] = system: MDA-MB-231; test: Antiproliferative activity against human MDA-MB-231 cells assessed as inhibition of cell growth incubated for 48 hrs by MTT assay; format: functional, cell-based; settings: MDA-MB-231, 48 h

Structure (SMILES)	IC50 [1] [µM]	IC50 [2] [µM]	IC50 at 48 h [3] [µM]	IC50 [4] [µM]	IC50 [5] [µM]	IC50 [6] [µM]	IC50 [7] [µM]
COc1ccc2[nH]c3c(C(=O)/C=C/C=C/c4ccccc4)nccc3c2c1	17.5	> 20	> 20	18.9	> 10	> 20	> 20
O=C(/C=C/c1ccc([N+](=O)[O-])cc1)c1nccc2c1[nH]c1ccccc12	5.87	> 20	> 20	> 20	> 10	3.96	0.62
COc1ccc2[nH]c3c(C(=O)/C=C/c4ccccc4Cl)nccc3c2c1	> 20	> 20	> 20	> 20	> 10	0.52	1.43
COc1ccc2[nH]c3c(C(=O)/C=C/c4cccc(Br)c4)nccc3c2c1	> 20	> 20	> 20	> 20	> 10	0.49	> 20
COc1ccc2[nH]c3c(C(=O)/C=C/c4ccc(Cl)c(C)c4)nccc3c2c1	4.38	7.49	> 20	2.74	> 10	1.89	6.45
O=C(/C=C/c1ccc(Br)cc1)c1nccc2c1[nH]c1ccccc12	3.54	12.2	> 20	> 20	> 10	9.73	9.21
COc1ccc2[nH]c3c(C(=O)/C=C/c4ccc(F)c(OC)c4)nccc3c2c1	0.77	6.48	> 20	6.33	0.99	2.47	1.41
O=C(/C=C/c1ccc2c(c1)OCCO2)c1nccc2c1[nH]c1ccccc12	> 20	> 20	> 20	13.2	> 10	> 20	15.2
O=C(/C=C/c1cccc(I)c1)c1nccc2c1[nH]c1ccccc12	1.6	> 20	> 20	> 20	> 10	> 20	5.17
COc1ccc2[nH]c3c(C(=O)/C=C/c4cc(OC)c(OC)cc4Br)nccc3c2c1	8.05	4.51	> 20	> 20	> 10	11.3	> 20
O=C(/C=C/c1cccc(Br)c1)c1nccc2c1[nH]c1ccccc12	4.99	11.8	14.3	5.89	2.69	7.24	6.44
COc1cc(/C=C/C(=O)c2nccc3c2[nH]c2ccccc23)ccc1F	2.38	3.07	> 20	5.7	1.02	10.9	3.25
COc1ccc(/C=C/C(=O)c2nccc3c2[nH]c2ccccc23)cc1	17.3	> 20	> 20	> 20	> 10	19	> 20
COc1ccc2[nH]c3c(C(=O)/C=C/c4c(OC)cccc4OC)nccc3c2c1	5.71	15.3	> 20	7.13	> 10	13.6	12
COc1ccc2[nH]c3c(C(=O)/C=C/c4c(C)cccc4C)nccc3c2c1	10.1	> 20	> 20	> 20	> 10	> 20	> 20
COc1ccc2[nH]c3c(C(=O)/C=C/c4ccc(Br)cc4)nccc3c2c1	8.45	> 20	> 20	15.7	4.18	7.74	5.67
COc1ccc(/C=C/C(=O)c2nccc3c2[nH]c2ccccc23)c(OC)c1OC	> 20	> 20	> 20	11.6	> 10	> 20	> 20
